The results in this text go back to ChEMBL document CHEMBL3259529, “Strychnobaillonine, an unsymmetrical bisindole alkaloid with an unprecedented skeleton from Strychnos icaja roots” (J Nat Prod, 2014).

Structures are written as SMILES. pIC50: −log10 of the molar value. Converted amounts (≈) assume the structure as drawn.

A short description of data set [1]: Selectivity index, ratio of IC50 for human WI38 cells to IC50 for chloroquine-sensitive Plasmodium falciparum 3D7. In kind it is toxicity, cell-based, WI-38. The settings on record: read-out: Ratio IC50.
Another data set deals with Plasmodium falciparum. The data set can be described thus: Antiplasmodial activity against chloroquine-sensitive Plasmodium falciparum 3D7 assessed as growth inhibition by lactate dehydrogenase assay. In kind it is functional, organism-based.
A further data set deals with WI-38. The data set can be described thus: Cytotoxicity against human WI38 cells assessed as cell viability by WST-1 assay. In kind it is cell-based. Background: Tetrazolium dyes change colour on reduction, which living cells bring about.

What is called pIC50 is the negative decadic logarithm of the IC50, by convention in mol/L. As usually defined, the IC90 is the concentration at which the effect reaches the 90% level. A word on the IC50: it is the midpoint of a concentration-inhibition curve. With `C/C=C1/CN2CC[C@]34c5ccccc5N5C(=O)[C@H]6[C@@H](O)[C@H]7[C@@H]8N(c9ccccc9[C@@]89CCN8C/C(=C/C)[C@@H]7C[C@H]89)[C@@H]6[C@H]([C@H]53)[C@H]1C[C@H]24`, the selectivity ratio in data set [1] is greater than 14. Also, in the data set with Plasmodium falciparum, the negative-log IC50 (pIC50) is 5.96 and the IC90 was found to be 2.6 µg/mL (≈ 4.24 µM). The IC50 in the data set on WI-38 was greater than 10 µg/mL.
For `C[C@@H]1CC[C@H]2[C@@H](C)C(=O)O[C@@H]3O[C@@]4(C)CC[C@@H]1[C@]32OO4` [ARTEMISININ], the IC50 with Plasmodium falciparum was 0.01 µg/mL.
As for `C/C=C1/CN2[C@@H](C3=C[C@@H]4[C@@H]5N(C3=O)c3ccccc3[C@@]53CCN5C/C(=C/C)[C@@H]4C[C@H]53)C[C@@]34c5ccccc5N5C6=C7[C@H]8C[C@@H]9N(CC[C@@]9%10c9ccccc9N(C6=C([C@H]1C[C@H]23)[C@H]54)[C@@H]7%10)C/C8=C/C`, the selectivity ratio in data set [1] was less than 10.1. Moreover, in the data set with Plasmodium falciparum, the pIC50 was 6.22 and the 90% effect concentration (IC90) was 1.6 µg/mL (≈ 1.85 µM). The IC50 in the data set with WI-38 was less than 5 µg/mL.
For the compound `CC[C@@]1(O)C(=O)OCc2c1cc1n(c2=O)Cc2cc3ccccc3nc2-1` [CAMPTOTHECIN], the half-maximal inhibitory concentration (IC50) in the data set on WI-38 was 0.03 µg/mL (≈ 0.0861 µM).
